Measured values: ChEMBL document CHEMBL5154693, “N-Methylpropargylamine-Conjugated Hydroxamic Acids as Dual Inhibitors of Monoamine Oxidase A and Histone Deacetylase for Glioma Treatment” (J Med Chem, 2022)
Activity calls are given as the source filed them. No cut-off for these calls is given here.

Columns and labels:
[1] = Toxicity in mouse bearing intracranial tumor assessed as last day of survival at 25 mg/kg, ip treatment started at 7 dpi (Rvb=19 days); type: organism-based; conditions: in vivo, 456 h
U-251 [2] = assay: cells; type: functional, cell-based; conditions: Homo sapiens, U-251, 48 h
Description: Cytotoxicity against human TMZ-sensitive U251 cells assessed as inhibition of cell growth incubated for 48 hrs by MTT assay

Mus musculus [3] = assay: In vivo inhibition of MAO-A in mouse xenografted with mouse GL26 assessed as decrease in MAO activity in brain at 25 mg/kg, ip administered for 10 days by bioluminescence assay; type: functional, organism-based; conditions: time 10.0 day
U-251 [4] = assay: cells; type: functional, cell-based; conditions: Homo sapiens, U-251, 48 h; remark: listed apart in the source
Description: Cytotoxicity against human TMZ-resistant U251 cells assessed as inhibition of cell growth incubated for 48 hrs by MTT assay

[5] = molecular target: T1, Amine oxidase [flavin-containing] A (Homo sapiens, UniProt P21397); assay: Inhibition of MAO-A (unknown origin) expressed in mouse GL26 cells using 14C 5-hydroxytryptamine as substrate pre-incubated for 20 mins followed by substrate addition measured after 20 mins by liquid scintillation spectroscopy; type: cell-based
T1 sequence (P21397 whole entry): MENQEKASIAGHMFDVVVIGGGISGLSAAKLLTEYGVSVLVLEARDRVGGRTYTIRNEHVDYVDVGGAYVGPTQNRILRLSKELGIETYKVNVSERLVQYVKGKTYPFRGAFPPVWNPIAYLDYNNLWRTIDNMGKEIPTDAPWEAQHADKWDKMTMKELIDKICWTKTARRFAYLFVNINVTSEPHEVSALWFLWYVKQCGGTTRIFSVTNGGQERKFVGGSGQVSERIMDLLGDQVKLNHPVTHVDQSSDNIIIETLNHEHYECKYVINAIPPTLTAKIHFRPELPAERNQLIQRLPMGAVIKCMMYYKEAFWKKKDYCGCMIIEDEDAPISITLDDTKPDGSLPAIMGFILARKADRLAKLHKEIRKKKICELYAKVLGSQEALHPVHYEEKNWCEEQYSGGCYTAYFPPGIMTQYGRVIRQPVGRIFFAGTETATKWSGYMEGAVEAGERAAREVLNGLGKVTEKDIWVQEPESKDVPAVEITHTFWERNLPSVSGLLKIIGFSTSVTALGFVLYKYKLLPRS

GL26 = assay: Antiproliferative activity against mouse GL26 cells assessed as decrease in number of colonies at 0.625 to 1.25 uM incubated for 48 hrs by colony formation assay; type: functional, cell-based; conditions: dose 0.625-1.25 µM
Mus musculus [6] = assay: In vivo inhibition of MAO-A in C57BL6 mouse xenografted with mouse GL26 cells as decrease in MAO activity in brain at 50 mg/kg, ip by radiometric analysis; type: functional, organism-based
Mus musculus [7] = assay: In vivo inhibition of MAO-A in mouse xenografted with mouse GL26 assessed as decrease in MAO activity in tumor at 50 mg/kg by radiometric analysis; type: functional
Mus musculus [8] = assay: In vivo inhibition of MAO-A in mouse xenografted with mouse GL26 assessed as decrease in MAO activity in tumor at 25 mg/kg, ip administered for 10 days by bioluminescence assay; type: functional, organism-based; conditions: time 10.0 day
U-251 [9] = assay: Cytotoxicity against human U251 cells assessed as inhibition of cell growth incubated for 48 hrs by MTT assay; type: functional, cell-based; conditions: DDE = dose-dependent effect
[10] = Toxicity in mouse bearing intracranial tumor assessed as assessed as median survival time at 25 mg/kg, ip treatment started at 7 dpi (Rvb=18.25 days); type: organism-based; conditions: in vivo, 438 h
[11] = molecular target: T2, Protein deacetylase HDAC6 (Homo sapiens, UniProt Q9UBN7); assay: Inhibition of human HDAC6 (379 to 382 residues) using RHKKAc fluorogenic peptide as substrate by fluorescence assay
T2 sequence (Q9UBN7 whole entry): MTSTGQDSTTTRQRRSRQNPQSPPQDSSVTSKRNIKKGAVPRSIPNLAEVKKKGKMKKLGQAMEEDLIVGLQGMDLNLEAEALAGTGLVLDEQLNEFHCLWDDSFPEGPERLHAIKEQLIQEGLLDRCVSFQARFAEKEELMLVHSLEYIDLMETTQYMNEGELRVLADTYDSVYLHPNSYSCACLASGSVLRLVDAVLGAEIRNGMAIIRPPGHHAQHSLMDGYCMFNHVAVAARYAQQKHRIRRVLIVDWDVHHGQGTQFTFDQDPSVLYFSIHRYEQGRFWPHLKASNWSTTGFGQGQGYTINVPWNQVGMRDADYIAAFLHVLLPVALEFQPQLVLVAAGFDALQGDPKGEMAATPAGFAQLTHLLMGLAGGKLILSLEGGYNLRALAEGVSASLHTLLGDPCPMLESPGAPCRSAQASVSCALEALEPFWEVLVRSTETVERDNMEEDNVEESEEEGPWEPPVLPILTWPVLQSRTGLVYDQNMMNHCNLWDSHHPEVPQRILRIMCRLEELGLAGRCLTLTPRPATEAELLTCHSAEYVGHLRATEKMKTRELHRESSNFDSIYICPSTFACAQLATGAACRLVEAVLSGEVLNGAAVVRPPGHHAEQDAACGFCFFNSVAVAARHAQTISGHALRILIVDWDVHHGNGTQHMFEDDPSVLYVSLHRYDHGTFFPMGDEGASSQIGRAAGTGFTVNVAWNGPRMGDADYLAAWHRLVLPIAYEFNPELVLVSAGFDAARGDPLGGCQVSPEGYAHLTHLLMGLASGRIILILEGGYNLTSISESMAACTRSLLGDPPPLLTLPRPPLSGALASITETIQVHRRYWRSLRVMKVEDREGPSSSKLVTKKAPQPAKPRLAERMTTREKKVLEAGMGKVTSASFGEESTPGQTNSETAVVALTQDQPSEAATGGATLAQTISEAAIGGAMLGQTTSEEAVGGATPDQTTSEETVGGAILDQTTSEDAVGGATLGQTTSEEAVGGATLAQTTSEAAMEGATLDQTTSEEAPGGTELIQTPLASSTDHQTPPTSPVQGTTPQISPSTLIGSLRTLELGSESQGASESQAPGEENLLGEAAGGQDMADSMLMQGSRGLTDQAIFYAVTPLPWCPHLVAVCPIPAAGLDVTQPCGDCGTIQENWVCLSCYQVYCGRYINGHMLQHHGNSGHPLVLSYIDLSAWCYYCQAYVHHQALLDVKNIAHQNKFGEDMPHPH

Histone deacetylase 2 = Histone deacetylase 2 (Homo sapiens, UniProt Q92769); assay: Inhibition of human HDAC2 (379 to 382 residues) using RHKKAc-AMC fluorogenic peptide as substrate by fluorescence assay
[12] = Cytotoxicity against mouse GL26 cells assessed as inhibition of cell growth incubated for 48 hrs by MTT assay; type: functional, cell-based; conditions: GL26, 48 h

Histone deacetylase 2, sequence (Q92769 whole entry, the tested form may be a part): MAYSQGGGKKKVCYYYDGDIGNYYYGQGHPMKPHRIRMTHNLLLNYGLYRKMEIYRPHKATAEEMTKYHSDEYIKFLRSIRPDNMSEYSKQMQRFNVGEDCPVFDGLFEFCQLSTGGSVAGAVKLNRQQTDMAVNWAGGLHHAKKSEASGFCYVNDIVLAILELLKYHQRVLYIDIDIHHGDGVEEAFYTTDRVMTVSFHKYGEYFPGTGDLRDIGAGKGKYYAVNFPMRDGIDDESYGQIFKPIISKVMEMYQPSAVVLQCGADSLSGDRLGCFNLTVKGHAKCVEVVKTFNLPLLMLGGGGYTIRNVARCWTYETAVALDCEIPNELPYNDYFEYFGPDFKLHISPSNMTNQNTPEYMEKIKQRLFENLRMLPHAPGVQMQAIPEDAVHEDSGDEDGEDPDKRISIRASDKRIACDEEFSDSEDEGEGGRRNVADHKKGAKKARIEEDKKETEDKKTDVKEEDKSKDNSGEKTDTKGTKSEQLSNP

SMILES	Survival [1] [days]	IC50 (U-251 [2]) [µM]	Activity (Mus musculus [3])	IC50 (U-251 [4]) [µM]	IC50 [5] [µM]	Activity (GL26)	Activity (Mus musculus [6])	Activity (Mus musculus [7])	Activity (Mus musculus [8])	Activity (U-251 [9])	MST [10] [days]	IC50 [11] [µM]	IC50 (Histone deacetylase 2) [µM]	IC50 [12] [µM]	Activity (GL26; DDE = dose-dependent effect)
C#CCN(C)CCCOc1ccc(NC(=O)CCCCCCC(=O)NO)cc1Cl	20	2.83	Active	2.73	0.03	Active	Active	Active	Active	Dde	17.25	0.006	0.46	6.04	–
C#CCN(C)CCCOc1cc(NCc2ccc(/C=C/C(=O)NO)cc2)ccc1Cl	22	3.24	Active	0.99	0.004	–	Active	Active	Active	Dde	19.5	0.1	1.16	0.12	Dde
